Data published in patent publication US11472766B2, “Lipid nanoparticle composition” (Suzhou Abogen Biosciences Co., Ltd., priority 2020, dated 2022).

Columns and labels:
[1] = Encapsulation efficiency of lipid nanoparticles (Quant-it Ribogreen RNA quantification assay); type: physicochemical; conditions: LNP encapsulating hEPO mRNA; Table 3
Procedure, shortened: (§1)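 LNPs of cationic lipid:DSPC:cholesterol:PEG-lipid (50:10:38.5:1.5 molar) with mRNA in 10–50 mM citrate pH 4, microfluidic mixing at 1:3 ethanol:aqueous, lipid:mRNA weight ratio ~10:1–30:1, dialysed into DPBS and 0.2 μm filtered. Size by DLS, 173° backscatter; encapsulation efficiency by Ribogreen assay.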

[2] = system: human erythropoietin (hEPO) mRNA; test: Animal study: hEPO expression after tail vein injection of LNPs encapsulating hEPO mRNA (serum ELISA); type: in vivo; conditions: hEPO level, female ICR mice, 0.5 mg/kg, 6 hours post administration, class symbols, Table 3
Procedure, shortened: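 Female ICR mice (6-8 weeks) received LNPs carrying hEPO mRNA by tail vein injection at 0.5 mg/kg, with MC3 LNPs dosed the same way as positive control. Blood was drawn at set times (e.g., 6 h) and serum separated. hEPO was quantified by ELISA and reported as μg/ml.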

[3] = Apparent pKa of LNP formulations (TNS fluorescence assay); conditions: LNP cationic lipid/DSPC/cholesterol/DMG-PEG 50/10/38.5/1.5 mol %, Table 3
Method: The apparent pKa of each formulation was determined using an assay based on fluorescence of 2-(p-toluidino)-6-napthalene sulfonic acid (TNS). LNP formulations comprising of cationic lipid/DSPC/cholesterol/DMG-PEG (50/10/38.5/1.5 mol %) in PBS were prepared as described above. TNS was prepared as a 300 uM stock solution in distilled water. LNP formulations were diluted to 0.1 mg/ml total lipid in 3 mL of buffered solutions containing 50 mM sodium citrate, 50 mM sodium phosphate, 50 mM sodium borate, and 30 mM sodium chloride where the pH ranged from 3 to 9. An aliquot of the TNS solution was added to give a final concentration of 0.1 mg/ml and following vortex mixing fluorescence intensity was measured at room temperature in a Molecular Devices Spectramax iD3 spectrometer using excitation and mission wavelengths of 325 nm and 435 nm. A sigmoidal best fit analysis was applied to the fluorescence data and the pKa value was measured as the pH giving rise to half-maximal fluorescent intensity.

[4] = Lipid nanoparticle size by dynamic light scattering (Malvern Zetasizer Nano ZS); type: physicochemical; conditions: LNP: cationic lipid/DSPC/cholesterol/PEG-lipid 50:10:38.5:1.5, hEPO mRNA; Table 3
Procedure, shortened: as §1

Structure (SMILES) | Encapsulation Efficiency [1] [%] | Expression at 6 h (μg/ml) [2] | Apparant Pka [3] | polydispersity [4] | size nm [4] [nm]
CCCCCCCCCCCOC(=O)CCCCCN(CCCCCC(=O)OCC(CCCCCCCC)CCCCCCCC)CCN(CCO)C1CCCCC1 [Compound 83] | 93.5 | B (≥1 and <2) | 6.328 | 0.087 | 67.62
CCCCCCCCCCCOC(=O)CCCCCN(CCCCCC(=O)OCC(CCCCCCCC)CCCCCCCC)CCN(CCO)C1CCCCCC1 [Compound 84] | 93.2 | B (≥1 and <2) | 6.064 | 0.083 | 65.55
CCCCC(CCCC)CCCCCC(=O)OCCCCCN(CCCCCOC(=O)CCCCCC(CCCC)CCCC)CCN(CCO)C1CCC1 [Compound 85] | 93.7 | B (≥1 and <2) | 6.46 | 0.065 | 82.91
CCCCCCC(CCCCCC)CCCCCC(=O)OCCCCCN(CCCCCOC(=O)CCCCCC(CCCCCC)CCCCCC)CCN(CCO)C1CCC1 [Compound 86] | 93.8 | C (≥0.1 and <1) | 6.32 |  | 76.56
CCCCCCCCC(CCCCCCCC)COC(=O)CCCCCN(CCCCCC(=O)OCC(CCCCCCCC)CCCCCCCC)CCN(CCO)C1CCOC1 (centres unmarked) [Compound 87] | 91.2 | A (≥2) | 6.515 | 0.037 | 65.71
CCCCCCCCC(CCCCCC)COC(=O)CCCCCN(CCCCCC(=O)OCC(CCCCCC)CCCCCCCC)CCN(CCO)C1COC1 (centres unmarked) [Compound 88] | 97.2 | D (<0.1) | 7.41 | 0.21 | 66.89
CCCCCCCCC(CCCCCC)COC(=O)CCCCCN(CCCCCC(=O)OCC(CCCCCC)CCCCCCCC)CCN(CCO)C1CCOCC1 (centres unmarked) [Compound 89] | 94.6 | A (≥2) | 6.7 | 0.028 | 84.53
CCCCCCCCC(CCCCCC)COC(=O)CCCCCN(CCCCCC(=O)OCC(CCCCCC)CCCCCCCC)CCN(CCO)C1CCOC1 (centres unmarked) [Compound 90] | 97.3 | B (≥1 and <2) | 6.6 | 0.067 | 72
CCCCCCCCC(CCCCCC)COC(=O)CCCCCN(CCCCCC(=O)OCC(CCCCCC)CCCCCCCC)CCN(CCO)C1CCSCC1 (centres unmarked) [Compound 91] | 92.1 | B (≥1 and <2) | 6.257 | 0.106 | 62.06
CCCCCCCCC(CCCCCC)COC(=O)CCCCCN(CCCCCC(=O)OCC(CCCCCC)CCCCCCCC)CCN(C1CCCCC1)C1CC(O)C1 (centres unmarked) [Compound 92] | 95.2 | B (≥1 and <2) | 6.331 | 0.04 | 66.94
CCCCCCCCC(CCCCCC)COC(=O)CCCCCN(CCCCCC(=O)OCC(CCCCCC)CCCCCCCC)CCN(C1CCC1)C1CCC(O)CC1 (centres unmarked) [Compound 93] | 98.3 | A (≥2) | 6.491 | 0.041 | 93.74
CCCCC/C=C\CCCC(=O)C(CC/C=C\CCCCC)C(CCC/C=C\CCCCC)OC(=O)CCCCCN(CCO)CCCCCC(=O)OCCC/C=C/CCCCC (centres unmarked) [Compound 100] | 87.7 | C (≥0.1 and <1) | 6.187 | 0.208 | 58.6
CCCCC/C=C\CCCC(=O)C(CC/C=C\CCCCC)C(CCC/C=C\CCCCC)OC(=O)CCCCCN(CCCCCC(=O)OCCC/C=C/CCCCC)CCN(CCO)C1CCC1 (centres unmarked) [Compound 101] | 85.5 | B (≥1 and <2) | 6.071 | 0.067 | 72
CCCCCCCCC(CCCCCCCC)COC(=O)CCOCCN(CCOCCC(=O)OCC(CCCCCCCC)CCCCCCCC)CCN(CCO)C1CCC1 [Compound 102] | 94.10 | B (≥1 and <2) | 6.406 | 0.004 | 70.49
CCCCCCCCC(CCCCCCCC)COC(=O)CCOCCN(CCOCCC(=O)OCC(CCCCCCCC)CCCCCCCC)CCN(CCO)C1CCCCC1 [Compound 104] | 89.96 | A (≥2) | 6.184 | 0.022 | 70.93
CCCCCCCCC(CCCCCC)CC(=O)NCCCCCN(CCCCCNC(=O)CC(CCCCCC)CCCCCCCC)CCN(CCO)C1CCC1 (centres unmarked) [Compound 105] | 93.3 | A (≥2) | 6.698 | 0.042 | 92.4
CCCCCCCCC(CCCCCC)CC(=O)NCCCCCN(CCCCCOC(=O)CC(CCCCCC)CCCCCCCC)CCN(CCO)C1CCC1 (centres unmarked) [Compound 108] | 95.6 | A (≥2) | 6.711 | 0.064 | 80.78
CCCCCCCCC(CCCCCC)CNC(=O)CCCCCN(CCCCCC(=O)OCC(CCCCCC)CCCCCCCC)CCN(CCO)C1CC1 (centres unmarked) [Compound 109] | 97.6 | A (≥2) | 6.633 | 0.06 | 73.52
CCCCCCCCC(CCCCCC)CNC(=O)CCCCCN(CCCCCC(=O)NCC(CCCCCC)CCCCCCCC)CCN(CCO)C1CC1 (centres unmarked) [Compound 110] | 90.0 | C (≥0.1 and <1) | 6.696 | 0.063 | 91.1
CCCCCCCCC(CCCCCC)CNC(=O)CCCCCN(CCCCCC(=O)NCC(CCCCCC)CCCCCCCC)CCN(CCO)C1CCCC1 (centres unmarked) [Compound 111] | 89.0 | B (≥1 and <2) | 6.668 | 0.049 | 92.3
CCCCCCCCC(CCCCCC)CC(=O)NCCCCCN(CCCCCNC(=O)CC(CCCCCC)CCCCCCCC)CCN(CCO)C1CC1 (centres unmarked) [Compound 113] | 91.2 | A (≥2) | 6.728 | 0.04 | 90
CCCCCCCCC(CCCCCC)CC(=O)NCCCCCN(CCCCCNC(=O)CC(CCCCCC)CCCCCCCC)CCN(CCO)C1CCCC1 (centres unmarked) [Compound 114] | 89.3 | A (≥2) | 6.695 | 0.025 | 87.92
CCCCCCCCC(CCCCCC)CC(=O)NCCCCCN(CCCCCNC(=O)CC(CCCCCC)CCCCCCCC)CCN(CCO)C1CCCCC1 (centres unmarked) [Compound 115] | 98.2 | A (≥2) | 6.732 | 0.117 | 65.12
CCCCCCCCC(CCCCCC)CC(=O)NCCCCCN(CCCCCNC(=O)CC(CCCCCC)CCCCCCCC)CCN(CCO)C1CCCCCC1 (centres unmarked) [Compound 116] | 94.5 | A (≥2) | 6.795 | 0.201 | 79.28
CCCCCCCCC(CCCCCC)CC(=O)NCCCCCN(CCCCCOC(=O)CC(CCCCCC)CCCCCCCC)CCN(CCO)C1CC1 (centres unmarked) [Compound 117] | 95.2 | A (≥2) | 6.72 | 0.157 | 76.79
CCCCCCCCC(CCCCCC)CNC(=O)CCCCCN(CCCCCC(=O)NCC(CCCCCC)CCCCCCCC)CCN(CCO)C1CCC1 (centres unmarked) [Compound 118] | 98.9 | A (≥2) | 6.523 | 0.057 | 62.72
CCCCCCCCC(CCCCCC)CNC(=O)CCCCCN(CCCCCC(=O)NCC(CCCCCC)CCCCCCCC)CCN(CCO)C1CCCCC1 (centres unmarked) [Compound 120] | 97.1 | B (≥1 and <2) | 6.264 | 0.1 | 59.78
CCCCCCCCC(CCCCCC)CNC(=O)NCCCCN(CCCCNC(=O)NCC(CCCCCC)CCCCCCCC)CCN(CCO)C1CCCCC1 (centres unmarked) [Compound 122] | 89.4 | A (≥2) | 7.048 | 0.044 | 57.81
CCCCCCCCC(CCCCCC)COC(=O)NCCCCN(CCCCNC(=O)OCC(CCCCCC)CCCCCCCC)CCN(CCO)C1CCCCC1 (centres unmarked) [Compound 124] | 96.9 | A (≥2) | 6.984 | 0.061 | 64.66
CCCCCCCCC(CCCCCC)COC(=O)NCCCCN(CCCCNC(=O)OCC(CCCCCC)CCCCCCCC)CCN(CCO)C1CCCC1 (centres unmarked) [Compound 125] | 95.6 | A (≥2) | 6.833 | 0.116 | 72.36
